Test results reported in patent publication US8415342B2, “Besifloxacin ophthalmic composition for the treatment or control of infection” (Bausch & Lomb Incorporated, priority 2008, dated 2013).
≈ marks a conversion by molar mass, not a printed value. Where “and” joins values, the source holds several entries; their conditions need not be identical. Equal values may be shown once.

What was measured:
[1] = target: T1, S. pneumoniae topoisomerase IV (Streptococcus pneumoniae serotype 4, UniProt P72525+Q59961); type: biochemical; conditions: S. pneumoniae enzymes; concentration that produces 25% linearization of the DNA
T1 sequence (P72525 1-823): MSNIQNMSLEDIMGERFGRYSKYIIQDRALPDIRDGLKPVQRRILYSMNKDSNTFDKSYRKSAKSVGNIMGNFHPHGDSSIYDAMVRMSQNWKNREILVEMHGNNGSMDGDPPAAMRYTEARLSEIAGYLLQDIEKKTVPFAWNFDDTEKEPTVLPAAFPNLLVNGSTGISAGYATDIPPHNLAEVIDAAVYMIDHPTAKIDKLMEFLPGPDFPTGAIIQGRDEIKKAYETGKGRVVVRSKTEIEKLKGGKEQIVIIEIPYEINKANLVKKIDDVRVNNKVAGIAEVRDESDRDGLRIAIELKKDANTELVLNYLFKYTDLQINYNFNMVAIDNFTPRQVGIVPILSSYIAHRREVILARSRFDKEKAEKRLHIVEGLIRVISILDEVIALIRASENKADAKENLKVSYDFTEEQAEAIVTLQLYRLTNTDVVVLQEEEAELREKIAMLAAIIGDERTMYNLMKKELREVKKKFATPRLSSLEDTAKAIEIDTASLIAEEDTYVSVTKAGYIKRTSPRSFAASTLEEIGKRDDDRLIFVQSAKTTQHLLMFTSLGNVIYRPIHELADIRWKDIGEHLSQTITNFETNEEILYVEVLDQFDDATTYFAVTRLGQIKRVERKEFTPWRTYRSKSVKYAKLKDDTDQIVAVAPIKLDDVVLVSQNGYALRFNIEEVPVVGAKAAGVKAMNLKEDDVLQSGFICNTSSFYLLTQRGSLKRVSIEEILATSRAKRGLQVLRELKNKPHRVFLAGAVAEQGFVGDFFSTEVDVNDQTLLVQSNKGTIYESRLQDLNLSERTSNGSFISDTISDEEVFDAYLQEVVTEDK
T1 sequence (Q59961 1-647): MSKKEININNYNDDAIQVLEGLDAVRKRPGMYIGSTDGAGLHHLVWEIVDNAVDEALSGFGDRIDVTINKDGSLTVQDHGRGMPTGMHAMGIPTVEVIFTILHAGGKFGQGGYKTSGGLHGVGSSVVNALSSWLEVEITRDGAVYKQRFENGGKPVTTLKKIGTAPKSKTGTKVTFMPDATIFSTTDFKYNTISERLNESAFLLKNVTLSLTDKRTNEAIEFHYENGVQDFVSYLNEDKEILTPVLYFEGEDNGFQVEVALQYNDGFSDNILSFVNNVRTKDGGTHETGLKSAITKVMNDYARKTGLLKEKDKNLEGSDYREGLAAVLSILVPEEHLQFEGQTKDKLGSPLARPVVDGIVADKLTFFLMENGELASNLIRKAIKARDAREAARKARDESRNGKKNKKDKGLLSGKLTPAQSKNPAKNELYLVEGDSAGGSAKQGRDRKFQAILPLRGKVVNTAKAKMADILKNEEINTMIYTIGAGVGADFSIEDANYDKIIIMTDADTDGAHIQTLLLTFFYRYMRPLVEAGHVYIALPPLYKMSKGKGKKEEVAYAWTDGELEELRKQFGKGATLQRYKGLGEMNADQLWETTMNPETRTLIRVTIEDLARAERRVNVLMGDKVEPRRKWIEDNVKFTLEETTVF

[2] = Nonclinical ocular tolerance, QID dosing for 28 days; type: in vivo
From the text: ERG measurements were included in the studies due to the known retinal toxicity associated with some fluoroquinolones.

[3] = test system: S. aureus topoisomerase mutants; assay: MIC against defined topoisomerase mutants; type: cell-based; conditions: Staphylococcus aureus
[4] = test system: S. aureus, S. pneumoniae, and H. influenzae; assay: Time-kill studies; type: cell-based; conditions: S. pneumoniae, and H. influenzae (data not shown)
From the text: The success of in vivo antimicrobial action depends to a large extent on the host's defense mechanisms, which ultimately sequester and kill the microorganisms that have been reduced by the bacteriostatic/bactericidal action of the antibacterial agent. Thus, it is also of interest to profile the bactericidal activity of antimicrobial agents. The assessment of in vitro bactericidal activity can be accomplished in multiple ways, for example, the time-kill method or the determination of the minimum bactericidal concentration (MBC). […] Bactericidal agents are characterized by low MBC:MIC ratios.

[5] = test system: baseline bacterial conjunctival pathogens; assay: Integrated species-specific microbial eradication, Studies 373, 433, 434; type: in vivo, human; conditions: for Microbial eradication rate / Microbial eradication rate (eradicated/total): culture-confirmed, as-treated population (Global); for microbial eradication rate, all species combined: Studies 373, 433, 434 integrated, global (US and Asia)
[6] = C. pseudodiphtheriticum, Visit 2
[7] = C. pseudodiphtheriticum, Visit 3
[8] = CDC coryneform group G, Visit 2
[9] = CDC coryneform group G, Visit 3
[10] = S. mitis group (only isolates identified as S. mitis or S. mitis group), Visit 2
[11] = S. mitis group (only isolates identified as S. mitis or S. mitis group), Visit 3

Question: Which results are given for `N[C@@H]1CCCCN(c2c(F)cc3c(=O)c(C(=O)O)cn(C4CC4)c3c2Cl)C1` [Besifloxacin, (R)-(+)-(3-amino-2,3,4,5,6,7-hexahydro-1H-azepin-1-yl)-8-chloro-1-cyclopropyl-6-fluoro-1,4,-dihydro-4-oxo-3-quinolinecarboxylic acid]?
Answer: CC25 Topo IV [1]: 1 μM and 0.4 μg/mL; non-clinical ocular tolerance [2]: no adverse effects observed; MIC ([3]; S. aureus Wild type): 0.03 µg/mL (≈ 0.0762 µM); MIC ([3]; S. aureus parC S80F (or E84K)): 0.06 µg/mL (≈ 0.152 µM); MIC ([3]; S. aureus parC S80F + gyrA S84L): 0.5 µg/mL; bactericidal activity in time-kill studies [4]: confirmed the bactericidal activity; Microbial eradication rate ([5]; All species, Visit 2): (92.2%); Microbial eradication rate (eradicated/total) ([5]; All species, Visit 2): 606/656; Microbial eradication rate ([5]; All species, Visit 3): (88.4%); Microbial eradication rate (eradicated/total) ([5]; All species, Visit 3): 580/656; Microbial eradication rate [5, 6]: (100.0%); Microbial eradication rate (eradicated/total) [5, 6]: 6/6; Microbial eradication rate [5, 7]: (100.0%); Microbial eradication rate (eradicated/total) [5, 7]: 6/6; Microbial eradication rate ([5]; C. striatum, Visit 2): (100.0%); Microbial eradication rate (eradicated/total) ([5]; C. striatum, Visit 2): 5/5; Microbial eradication rate ([5]; C. striatum, Visit 3): (100.0%); Microbial eradication rate (eradicated/total) ([5]; C. striatum, Visit 3): 5/5; Microbial eradication rate [5, 8]: (93.8%); Microbial eradication rate (eradicated/total) [5, 8]: 15/16; Microbial eradication rate [5, 9]: (93.8%); Microbial eradication rate (eradicated/total) [5, 9]: 15/16; Microbial eradication rate ([5]; Gram-negative, Visit 2): (92.3%); Microbial eradication rate (eradicated/total) ([5]; Gram-negative, Visit 2): 193/209; Microbial eradication rate ([5]; Gram-negative, Visit 3): (90.0%); Microbial eradication rate (eradicated/total) ([5]; Gram-negative, Visit 3): 188/209; Microbial eradication rate ([5]; Gram-positive, Visit 2): (92.2%); Microbial eradication rate (eradicated/total) ([5]; Gram-positive, Visit 2): 412/447; Microbial eradication rate ([5]; Gram-positive, Visit 3): (87.7%); Microbial eradication rate (eradicated/total) ([5]; Gram-positive, Visit 3): 392/447; Microbial eradication rate ([5]; H. influenzae, Visit 2): (91.0%); Microbial eradication rate (eradicated/total) ([5]; H. influenzae, Visit 2): 152/167; Microbial eradication rate ([5]; H. influenzae, Visit 3): (88.6%); Microbial eradication rate (eradicated/total) ([5]; H. influenzae, Visit 3): 148/167; Microbial eradication rate ([5]; M. lacunata, Visit 2): (100.0%); Microbial eradication rate (eradicated/total) ([5]; M. lacunata, Visit 2): 5/5; Microbial eradication rate ([5]; M. lacunata, Visit 3): (80.0%); Microbial eradication rate (eradicated/total) ([5]; M. lacunata, Visit 3): 4/5; Microbial eradication rate ([5]; S. aureus, Visit 2): (87.1%); Microbial eradication rate (eradicated/total) ([5]; S. aureus, Visit 2): 81/93; Microbial eradication rate ([5]; S. aureus, Visit 3): (83.9%); Microbial eradication rate (eradicated/total) ([5]; S. aureus, Visit 3): 78/93; Microbial eradication rate ([5]; S. epidermidis, Visit 2): (94.0%); Microbial eradication rate (eradicated/total) ([5]; S. epidermidis, Visit 2): 47/50; Microbial eradication rate ([5]; S. epidermidis, Visit 3): (88.0%); Microbial eradication rate (eradicated/total) ([5]; S. epidermidis, Visit 3): 44/50; Microbial eradication rate ([5]; S. hominis, Visit 2): (83.3%); Microbial eradication rate (eradicated/total) ([5]; S. hominis, Visit 2): 5/6; Microbial eradication rate ([5]; S. hominis, Visit 3): (100.0%); Microbial eradication rate (eradicated/total) ([5]; S. hominis, Visit 3): 6/6; Microbial eradication rate ([5]; S. lugdunensis, Visit 2): (100.0%); Microbial eradication rate (eradicated/total) ([5]; S. lugdunensis, Visit 2): 5/5; Microbial eradication rate ([5]; S. lugdunensis, Visit 3): (100.0%); Microbial eradication rate (eradicated/total) ([5]; S. lugdunensis, Visit 3): 5/5; Microbial eradication rate [5, 10]: (89.5%); Microbial eradication rate (eradicated/total) [5, 10]: 17/19; Microbial eradication rate [5, 11]: (84.2%); Microbial eradication rate (eradicated/total) [5, 11]: 16/19; Microbial eradication rate ([5]; S. oralis, Visit 2): (90.9%); Microbial eradication rate (eradicated/total) ([5]; S. oralis, Visit 2): 10/11; Microbial eradication rate ([5]; S. oralis, Visit 3): (72.7%); Microbial eradication rate (eradicated/total) ([5]; S. oralis, Visit 3): 8/11; Microbial eradication rate ([5]; S. pneumoniae, Visit 2): (92.8%); Microbial eradication rate (eradicated/total) ([5]; S. pneumoniae, Visit 2): 142/153; Microbial eradication rate ([5]; S. pneumoniae, Visit 3): (86.3%); Microbial eradication rate (eradicated/total) ([5]; S. pneumoniae, Visit 3): 132/153; Microbial eradication rate ([5]; S. salivarius, Visit 2): (100.0%); Microbial eradication rate (eradicated/total) ([5]; S. salivarius, Visit 2): 5/5; Microbial eradication rate ([5]; S. salivarius, Visit 3): (80.0%); Microbial eradication rate (eradicated/total) ([5]; S. salivarius, Visit 3): 4/5; microbial eradication rate, all species combined ([5]; Visit 2): 92.2%; microbial eradication rate, all species combined ([5]; Visit 3): 88.4%
